Experimental data as given in ChEMBL document CHEMBL1150976, “The selectivity of protein kinase inhibitors: a further update” (Biochem J, 2007).

Legend:
[1] = target: Cyclin-dependent kinase 2/cyclin A (Homo sapiens) (UniProt P24941+P20248+P78396); assay: Percentage CDK2-cyclinA activity remaining in the presence of 25uM inhibitor; format: protein-complex assay
[2] = target: Serine/threonine-protein kinase Nek7 (Homo sapiens) (UniProt Q8TDX7); assay: Percentage NEK7 activity remaining in the presence of 25uM inhibitor
[3] = target: T1, Serine/threonine-protein kinase Sgk1 (Homo sapiens) (UniProt O00141); assay: Percentage SGK1 activity remaining in the presence of 25uM inhibitor
T1 sequence (whole entry): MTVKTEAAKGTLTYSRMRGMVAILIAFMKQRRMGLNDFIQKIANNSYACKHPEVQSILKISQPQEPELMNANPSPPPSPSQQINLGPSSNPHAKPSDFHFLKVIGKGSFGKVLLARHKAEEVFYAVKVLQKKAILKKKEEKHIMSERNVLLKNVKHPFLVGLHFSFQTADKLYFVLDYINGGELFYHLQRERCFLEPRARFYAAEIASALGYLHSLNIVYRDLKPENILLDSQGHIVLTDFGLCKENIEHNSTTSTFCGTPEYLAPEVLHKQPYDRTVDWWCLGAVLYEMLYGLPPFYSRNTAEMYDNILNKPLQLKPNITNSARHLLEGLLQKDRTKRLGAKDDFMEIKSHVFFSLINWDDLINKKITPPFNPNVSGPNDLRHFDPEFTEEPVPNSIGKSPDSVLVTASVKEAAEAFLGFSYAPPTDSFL

[4] = target: Serine/threonine-protein kinase N2 (Homo sapiens) (UniProt Q16513); assay: Percentage PRK2 activity remaining in the presence of 25uM inhibitor
[5] = target: T2, Serine/threonine-protein kinase Nek2 (Homo sapiens) (UniProt P51955); assay: Percentage NEK2a activity remaining in the presence of 25uM inhibitor
T2 sequence (whole entry): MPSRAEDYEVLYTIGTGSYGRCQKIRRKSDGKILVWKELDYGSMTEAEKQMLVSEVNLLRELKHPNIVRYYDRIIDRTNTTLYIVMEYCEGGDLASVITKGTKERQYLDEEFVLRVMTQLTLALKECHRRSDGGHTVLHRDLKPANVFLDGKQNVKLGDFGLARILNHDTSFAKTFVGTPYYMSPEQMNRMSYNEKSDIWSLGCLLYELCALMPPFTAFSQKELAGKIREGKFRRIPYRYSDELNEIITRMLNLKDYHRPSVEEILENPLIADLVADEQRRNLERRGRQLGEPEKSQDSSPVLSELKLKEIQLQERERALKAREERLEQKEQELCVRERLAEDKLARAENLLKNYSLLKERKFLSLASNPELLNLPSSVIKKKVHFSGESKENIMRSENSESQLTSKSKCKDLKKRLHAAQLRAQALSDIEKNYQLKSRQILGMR

[6] = target: T3, Eukaryotic elongation factor 2 kinase (Homo sapiens) (UniProt O00418); assay: Percentage EF2K activity remaining in the presence of 25uM inhibitor
T3 sequence (whole entry): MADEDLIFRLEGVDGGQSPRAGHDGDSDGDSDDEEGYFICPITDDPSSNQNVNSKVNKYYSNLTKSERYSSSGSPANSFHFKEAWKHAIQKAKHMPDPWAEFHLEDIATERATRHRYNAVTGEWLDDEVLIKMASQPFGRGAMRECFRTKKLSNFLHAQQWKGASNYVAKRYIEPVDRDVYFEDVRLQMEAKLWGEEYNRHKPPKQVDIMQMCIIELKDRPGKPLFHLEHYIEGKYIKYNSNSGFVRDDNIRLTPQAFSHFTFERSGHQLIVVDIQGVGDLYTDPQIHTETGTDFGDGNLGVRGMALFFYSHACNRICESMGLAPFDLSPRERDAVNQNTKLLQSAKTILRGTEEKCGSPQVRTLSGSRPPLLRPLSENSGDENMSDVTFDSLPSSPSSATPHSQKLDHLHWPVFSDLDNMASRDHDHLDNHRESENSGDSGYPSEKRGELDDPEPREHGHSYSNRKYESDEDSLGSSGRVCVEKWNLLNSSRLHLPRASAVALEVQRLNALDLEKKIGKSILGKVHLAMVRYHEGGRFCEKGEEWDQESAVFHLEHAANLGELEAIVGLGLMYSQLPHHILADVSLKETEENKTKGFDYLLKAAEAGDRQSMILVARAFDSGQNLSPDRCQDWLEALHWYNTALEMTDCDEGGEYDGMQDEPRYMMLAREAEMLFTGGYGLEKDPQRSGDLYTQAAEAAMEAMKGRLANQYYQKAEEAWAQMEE

[7] = target: T4, Serine/threonine-protein kinase BRSK2 (Homo sapiens) (UniProt Q8IWQ3); assay: Percentage BRSK2 activity remaining in the presence of 25uM inhibitor
T4 sequence (whole entry): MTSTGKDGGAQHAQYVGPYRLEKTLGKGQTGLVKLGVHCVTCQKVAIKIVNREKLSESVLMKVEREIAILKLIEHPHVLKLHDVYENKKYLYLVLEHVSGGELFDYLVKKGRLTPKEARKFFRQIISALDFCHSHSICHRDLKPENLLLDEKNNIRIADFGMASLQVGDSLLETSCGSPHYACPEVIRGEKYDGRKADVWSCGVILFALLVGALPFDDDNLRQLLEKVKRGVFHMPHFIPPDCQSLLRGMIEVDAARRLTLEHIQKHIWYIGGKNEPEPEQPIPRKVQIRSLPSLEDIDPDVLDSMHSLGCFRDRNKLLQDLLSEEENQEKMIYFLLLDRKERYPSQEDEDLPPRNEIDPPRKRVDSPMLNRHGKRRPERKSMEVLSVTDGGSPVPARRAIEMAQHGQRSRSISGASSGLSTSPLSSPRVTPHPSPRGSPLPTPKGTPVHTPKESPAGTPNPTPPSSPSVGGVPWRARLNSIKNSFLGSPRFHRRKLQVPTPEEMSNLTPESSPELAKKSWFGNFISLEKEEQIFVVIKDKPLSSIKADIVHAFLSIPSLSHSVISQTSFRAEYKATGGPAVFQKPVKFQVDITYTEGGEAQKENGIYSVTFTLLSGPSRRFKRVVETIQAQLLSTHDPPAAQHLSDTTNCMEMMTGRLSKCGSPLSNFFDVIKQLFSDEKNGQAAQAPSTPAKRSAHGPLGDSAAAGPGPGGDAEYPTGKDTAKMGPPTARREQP

Serine/threonine-protein kinase N2 (Homo sapiens), sequence (Q16513 whole entry, looked up): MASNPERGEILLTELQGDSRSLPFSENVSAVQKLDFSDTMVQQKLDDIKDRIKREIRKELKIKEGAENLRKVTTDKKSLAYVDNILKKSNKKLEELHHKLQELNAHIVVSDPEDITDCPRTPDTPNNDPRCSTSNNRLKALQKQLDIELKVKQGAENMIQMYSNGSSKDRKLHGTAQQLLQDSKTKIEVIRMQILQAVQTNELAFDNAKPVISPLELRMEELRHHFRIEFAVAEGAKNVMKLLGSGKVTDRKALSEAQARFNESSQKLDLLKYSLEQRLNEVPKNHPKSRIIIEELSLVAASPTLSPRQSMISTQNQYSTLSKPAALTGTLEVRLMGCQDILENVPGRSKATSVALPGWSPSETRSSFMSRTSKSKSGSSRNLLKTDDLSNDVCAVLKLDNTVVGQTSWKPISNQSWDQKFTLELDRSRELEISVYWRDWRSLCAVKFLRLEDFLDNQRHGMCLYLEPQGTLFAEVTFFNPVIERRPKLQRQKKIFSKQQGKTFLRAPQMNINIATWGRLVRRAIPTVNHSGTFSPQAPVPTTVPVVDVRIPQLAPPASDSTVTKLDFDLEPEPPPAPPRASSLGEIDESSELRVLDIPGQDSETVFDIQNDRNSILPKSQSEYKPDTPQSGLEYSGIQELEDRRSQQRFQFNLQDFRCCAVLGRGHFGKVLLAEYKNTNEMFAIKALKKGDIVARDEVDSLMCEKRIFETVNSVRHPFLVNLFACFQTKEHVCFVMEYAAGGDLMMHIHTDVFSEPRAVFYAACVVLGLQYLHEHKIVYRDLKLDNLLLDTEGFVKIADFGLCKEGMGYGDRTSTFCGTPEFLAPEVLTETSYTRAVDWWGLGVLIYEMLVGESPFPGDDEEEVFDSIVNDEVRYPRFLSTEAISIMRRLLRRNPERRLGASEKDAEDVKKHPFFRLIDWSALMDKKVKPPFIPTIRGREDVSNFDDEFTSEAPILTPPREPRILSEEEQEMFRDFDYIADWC
Serine/threonine-protein kinase Nek7 (Homo sapiens), sequence (Q8TDX7 whole entry, looked up): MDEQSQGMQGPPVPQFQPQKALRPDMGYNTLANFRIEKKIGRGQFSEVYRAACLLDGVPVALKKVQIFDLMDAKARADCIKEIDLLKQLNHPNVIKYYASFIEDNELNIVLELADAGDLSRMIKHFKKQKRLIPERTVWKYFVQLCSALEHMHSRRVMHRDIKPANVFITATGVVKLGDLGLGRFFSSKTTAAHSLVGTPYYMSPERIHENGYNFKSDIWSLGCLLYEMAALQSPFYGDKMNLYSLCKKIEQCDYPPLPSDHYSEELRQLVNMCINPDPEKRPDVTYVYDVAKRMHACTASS

Activity ([3]; filed as antagonist) [%]	Activity ([4]; filed as antagonist) [%]	Activity ([7]; filed as antagonist) [%]	Compound	Activity [1] [%]	Activity [2] [%]	Activity [3] [%]	Activity [4] [%]	Activity [5] [%]	Activity [6] [%]	Activity [7] [%]
			COc1cc(OC)c(/C=C2/C(=O)Nc3ccccc32)c(OC)c1	83	103	79	87	75	100	88
25	47	42	NCCNS(=O)(=O)c1ccc(Cl)c2ccncc12	62	102			85	94	
